{"source": "patent US20260248863A1", "about": "“METHODS AND MATERIALS FOR TREATING GASTROINTESTINAL DISORDERS” (Mayo Foundation for Medical Education and Research, priority 2020, published 2026)", "key": {"[1]": {"system": "Caco-2 monolayers", "test": "Transepithelial resistance (TER) drop induced by high PA fecal supernatants on Caco-2 monolayers", "assay_type": "cell-based", "method": "(§1) Apical addition of high PA fecal supernatants on Caco-2 monolayers caused a drop in transepithelial resistance (TER) which was not seen with low PA supernatant (FIG. 16A). […] Since pancreatic elastases were found as the most abundant proteases driving the fecal PA, their effects on barrier were tested."}, "[2]": {"system": "Caco-2 monolayers", "test": "Texas red dextran flux across Caco-2 monolayers", "assay_type": "cell-based", "method": "as §1"}}, "data": [{"compound": "CC(C)C[C@H](NC(=O)[C@H]1O[C@@H]1C(=O)O)C(=O)NCCCCN=C(N)N", "note": "[E64]", "values": [{"measurement": "inhibition of fecal supernatant induced TER drop", "setting": "[1]; apical preincubation, 0.1 mM E64, Caco-2 monolayers, FIG. 17A", "result": "not"}, {"measurement": "reduction of increased paracellular (Texas red dextran) flux caused by high PA supernatants", "setting": "[2]; apical preincubation, 0.1 mM E64, Caco-2 monolayers, FIG. 17B", "result": "not"}]}, {"compound": "CC(C)CC(=O)N1CCN(C(=O)CCCCCN)CC1", "note": "[ENMD1068]", "values": [{"measurement": "effect of high PA fecal supernatant on TER (in words)", "setting": "[1]; FIG. 18, n=5/group, p<0.05", "result": "blocks"}, {"measurement": "inhibition of TER drop induced by high PA fecal supernatants", "setting": "[1]; preincubation of Caco-2 monolayer, 150 μM", "result": 45, "unit": "%"}]}, {"compound": "Trypsin", "values": [{"measurement": "effect on barrier", "setting": "[2]", "result": "had an effect on barrier"}]}, {"compound": "porcine pancreatic elastase: porcine pancreatic elastase, protease tested for effects on barrier", "values": [{"measurement": "Texas red dextran flux, 24 hour basolateral concentration", "setting": "[2]; 1 mM, Caco-2 monolayers, control 0.1 μg/mL, n=4/group, p<0.05", "result": 5.9, "unit": "µg/mL"}]}]}
